Reference: patent US20160296591A1, “COMPOSITIONS AND METHODS FOR TREATMENT OF BDNF-RELATED CONDITIONS” (TARIX PHARMACEUTICALS LTD., priority 2013, published 2016)

Assays:
Type in all cases: cell-based, human
[1] = tested on: BDNF; test: BDNF production in HUVEC, serum-free medium (BDNF Emax immunoassay); details: for lowest dose able to stimulate significant BDNF expression: serum-free medium, 24 hours stimulation, dose response 1×10^−14M to 1×10^−6M
Method: (§1) Prior to stimulation, cells were washed twice with sterile PBS and then provided with the respective serum free cell medium. Cells were incubated in the serum-free medium for one hour and afterwards stimulated for 24 hours. For the dose response measurement the peptides were used in a range from 1×10^−14M to 1×10^−6M. For all other experiments, a 1×10^−7M concentration of the peptides was used, whereas isoproterenol and forskolin were used in a 10^−6M concentration. To maintain the concentration of the substances over a period of 24 hours they were added again into the medium after 12 hours. After stimulation, the concentration of BDNF was determined in the cell medium. The samples were either used directly or stored at −80° C.
(§2) For the determination of the concentration of BDNF the BDNF Emax® immunoassay system from Promega was used. At first, 96-well plates were coated with anti-BDNF overnight at 4° C. The next day, the plates were washed with TBST and incubated with blocking buffer for one hour at room temperature. Afterwards, the plate was washed again with TBST, and 100 μl of sample were applied per well. The plate was incubated on a shaker (˜400 rpm) for two hours at room temperature and later on washed five times with TBST. To each well 100 μl pAb anti-human BDNF were added, and the plate again incubated under continuous shaking for two hours at room temperature. Thereafter, the plate was washed five times with TBST, each well applied with 100 μl anti-IgY-HRP conjugate, and incubated at room temperature with shaking for one hour. Then, the plate was washed five times with TBST and incubated for 10 min at room temperature on a shaker with TMB One Solution. The reaction was stopped with 1 M hydrochloric acid and the absorbance was measured immediately at 450 nm. The BDNF concentration was determined from a standard curve.

[2] = tested on: BDNF; test: BDNF production in HDMEC, serum-free medium (BDNF Emax immunoassay); details: for lowest dose able to stimulate significant BDNF expression: serum-free medium, 24 hours stimulation, dose response 1×10^−14M to 1×10^−6M
Method: as §1, §2

[3] = tested on: BDNF; test: BDNF production in HUVEC in complete (serum-containing) medium; details: peptide 1×10^−7M, 24 hours
Method: […] […] For the dose response measurement the peptides were used in a range from 1×10^−14M to 1×10^−6M. For all other experiments, a 1×10^−7M concentration of the peptides was used, whereas isoproterenol and forskolin were used in a 10^−6M concentration. To maintain the concentration of the substances over a period of 24 hours they were added again into the medium after 12 hours. After stimulation, the concentration of BDNF was determined in the cell medium. The samples were either used directly or stored at −80° C.
as §2, with “Thereafter, the plate was washed five times with TBST, each well applied with 100 μl anti-IgY-HRP conjugate, and incubated at room temperature with shaking for one hour. Then, the plate was washed five times with TBST and incubated for 10 min at room temperature on a shaker with TMB One Solution.” left out, “curve. […]” for “curve.”

[4] = tested on: cAMP; test: cAMP production in HUVEC (cAMP enzyme immunoassay); details: 15 minutes of stimulation
Method: Prior to stimulation with Ala^1-Arg^2-Val^3-Ser^4-Ile^5-His^6-Cys^7 (SEQ ID NO: 24), HUVEC cells were washed twice with PBS and then incubated for 1 hour in serum-free medium. In this Example, in order to generate a dose response curve, the peptide concentration ranged from 1×10^−13-1×10^−6 M. After 15 minutes of stimulation, the medium containing the peptide was removed and the cells were lysed (0.1M HCl, 0.1% Triton X-100). The clear lysate was collected, and 25 μl were used for determining the protein concentration (Pierce BCA Protein Assay Kit, Thermo Scientific, Rockford, USA) and the remaining fraction stored at −80° C. for later analysis.
cAMP concentration in cell lysates was determined using cAMP Enzyme Immunoassay Kit, Direct from Sigma-Aldrich (St. Louis, Mo., USA). Briefly, wells of 96-well plate (Goat Anti-Rabbit IgG pre-coated) were neutralized with 50 μl of Neutralizing Reagent. Next, 100 μl of acetylated cyclic AMP standard or cell lysate was added, followed by 50 μl of blue cAMP-Alkaline Phosphatase Conjugate and 50 μl of yellow EIA Rabbit Anti-cAMP antibody. The plate was then incubated on a shaker (˜500 rpm) for two hours at room temperature. […] The enzymatic reaction was stopped by adding 50 μl of Stop Solution, and the absorbance at 405 nm was measured immediately. The cAMP concentration was determined from non-linear standard curve using GraphPad Prism 5.0 software. […]

Compound	lowest dose able to stimulate significant BDNF expression [1] [pM]	lowest dose able to stimulate significant BDNF expression [2] [pM]	BDNF stimulation compared to control [3]	BDNF expression at doses 100,000 times higher than 1×10^−11 compared with 1×10^−11 M [1]	BDNF expression at doses 100,000 times higher than 1×10^−11 compared with 1×10^−11 M [2]	dose of the observed maximum of cAMP [4]	lowest dose giving a significant increase in cAMP ([4]; dose response 1×10^−13-1×10^−6 M) [pM]
Asp^1-Arg^2-Val^3-Tyr^4-Ile^5-His^6-Pro^7 (DRVYIHP) [Ang (1-7), naturally-occurring Angiotensin (1-7), seven amino acid peptide]	10000	10000					
CCC(C)C1NC(=O)C(NC(=O)C(NC(=O)C(CCCNC(=N)N)NC(=O)C(N)CC(=O)O)C(C)C)CSCC(C(=O)O)NC(=O)C(Cc2c[nH]cn2)NC1=O (centres unmarked) [Pancyte]	10	10	still able to stimulate BDNF above control levels				
TXA301: angiotensin (1-7) peptide tested; not defined in the text, possibly linear SEQ ID NO: 6 (DRVSIHC)	10	10		statistically similar levels of expression	statistically similar levels of expression		
Ala^1-Arg^2-Val^3-Ser^4-Ile^5-His^6-Cys^7 (ARVSIHC) [SEQ ID NO:24]						approximately 1×10^−9 M	10
